Experimental data as given in patent publication US20120270300A1, “PRODUCTION OF RECOMBINANT FACTOR IX IN A HUMAN HEPATOCYTE CELL LINE” (Universite Claude Bernard Lyon I, priority 2009, published 2012).
Where two headings read alike, the source gives them in different places.

Experiments:
[1] = tested on: Huh7 cells transiently transfected with pcDNAFIXwt; assay: Effects of protein degradation inhibitors on the intracellular level of FIXwt (ELISA on lysates); assay type: cell-based, human; conditions: for Intracellular FIX level (mean ± SE): 6 h treatment, 36 h after transfection, % relative to nontreated cell lysates, NH4Cl 50 mM/l, beta-lactone 10 μM/l, brefeldin A 10 μg/ml
Description: Huh7 cells (1×10^6 cells/dish) were transiently transfected at 80% confluence in 60 mm culture dishes. Thirty-six hours after transfection, the cells were incubated in FBS-free medium containing 10 μM/l of clasto-lactacystin β-lactone (Calbiochem, France Biochem, Meudon, France), 50 mM/l of ammonium chloride, or 10 μg/ml of brefeldin A (Sigma Aldrich). The medium was renewed every 2 hours.
The cell lysates were harvested 6 h later and prepared in 120 μl of cold lysis buffer. The FIX antigen concentration was quantified on the lysates by means of an ELISA assay. The results are expressed as percentage of values obtained relative to the nontreated control lysates. The comparisons were carried out by application of Fisher's test using the Stat View® software.
Thirty-six hours after transfection, the inhibitors were added to the culture medium and left for 6 h. The intracellular FIX concentrations were measured after treatment by means of an ELISA assay (the values are expressed as % of FIX relative to the values obtained in the nontreated cell lysates). The results are brought together in table 1 below and correspond to three independent transfections.

[2] = tested on: factor IX-deficient plasma; conditions: FIX from HepG2 cells with viral vectors, published by Chen et al.; cited from earlier work
[3] = tested on: factor IX-deficient plasma; assay: Specific coagulation activity, one-step chronometric aPTT test, related back to Benefix (aPTT/ELISA); assay type: biochemical
Description: The term “biologically active FIX” is intended to mean a factor IX of which the specific coagulation activity is at least 100%. The recombinant FIX secreted into the culture medium of the present invention preferably has a specific coagulation activity of from 150 to 200%, preferably from 170 to 200%. The specific coagulation activity of the factor IX is determined by means of the technique termed chronometric time technique by measuring the partial thromboplastin time (PTT) or activated partial thromboplastin time (aPTT) which is a semi-overall test of blood coagulation which uses a coagulometer. The test used is detailed in the examples. In this test, Benefix® has a specific activity of 100%.
The specific coagulation activity of the factor IX is determined using the technique termed chronometric time technique by measuring the partial thromboplastin time (PTT) or activated partial thromboplastin time (aPTT) according to K. J. Smith et al., Blood, 72, 1269-1277 (1988), which is a semi-overall one-step blood coagulation test with an MDA II® or else Destiny Max coagulometer (Trinity Biotech, Dublin, Ireland). For this, fifty microliters of sample are diluted to 1/10th in imidazole buffer (Trinity Biotech, Bray, Ireland). […] The coagulation time is measured by means of a coagulometer using an MDA II® or else Destiny Max automated device (Trinity Biotech, Bray, Ireland). […]

[4] = hemophilia B patients, versus plasma FIX (Mononine); cited from earlier work
[5] = versus plasma FIX (Mononine); cited from earlier work
[6] = tested on: factor IX-deficient plasma; assay: aPTT coagulation test under the conditions of Chen et al., related to standard plasma values, converted into ng/ml; assay type: biochemical; conditions: Huh7-CD4 clone
Description: A comparative study with respect to the works of Chen et al., 1997, was carried out. In these experiments, 1×10^6 cells of the Huh7-CD4 clone were seeded into 6-well plates. The following day, the medium was renewed and left in the presence of the producer cells for 24 hours. The FIX concentrations in this medium are determined using the Asserachrom IX:Ag ELISA kit (Diagnostica Stago). The activity of the FIX secreted into this medium is determined in a one-step coagulation test (aPTT) with an MDA II or else Destiny Max coagulometer (Trinity Biotech, Dublin, Ireland) as described above. The activity of the factor IX is determined from standard plasma values (Standard Human Plasma, Siemens Marburg, Germany, calibrated against a WHO—World Health Organization—standard) by means of a log-log curve. […] The specific activity of the FIX resulting from the Huh7-CD4 clone is calculated according to the ratio between the coagulant activity read for the sample, related back to the standard plasma values, and its FIX concentration (aPTT/ELISA).
Moreover, the specific activity of the FIX produced by the Huh7-CD4 line was determined according to the conditions determined by Chen et al. The ratio between the concentrations measured by the aPTT method (ng/ml) and measured by ELISA (ng/ml) was calculated on the basis of five different assays. […]

CC(C)[C@H](O)[C@@]12NC(=O)[C@H](C)[C@@H]1OC2=O [Beta-lactone, clasto-lactacystin β-lactone]
Intracellular FIX level (mean ± SE) [1]: 50.1% +/− 25.8
Intracellular FIX level (mean ± SE) ([1]; listed as clasto-lactacystin β-lactone): no significant effect

FIX/GCNCF9: FIX produced with a viral vector in the HepG2 hepatocyte cell line by Chen et al., 1997
% specific activity aPTT/ELISA [2]: 93.7 +/− 11%
aPTT [2]: 120 ± 14 ng/mL

Benefix: marketed recombinant FIX (Wyeth) synthesized by CHO cells stably transfected with the FIX cDNA
specific activity relative to that of Benefix ([3]; culture supernatants of transiently transfected Huh7 cells, 36 h after transfection, Benefix = 100%): 100%
half-life in the blood stream compared with plasma FIX [4]: similar
specific activity compared with FIX of plasma origin [5]: equivalent

FIXwt: recombinant human factor IX expressed in the human hepatocyte cell line Huh7 (transient, or stable clone Huh7-CD4) and secreted into the supernatant
specific activity improved by a factor ([3]; transiently transfected Huh7 cells, versus Benefix): 1.7
aPTT ([6]; 24 hours/10^6 cells, 5 μg/ml of FIX = 100%): 740 ± 59 ng/mL
% specific activity aPTT/ELISA ([6]; related to standard plasma, five assays): 161 +/− 37%

FIX/GCF9SN-MPSV: FIX produced with a viral vector in the HepG2 hepatocyte cell line by Chen et al., 1997
% specific activity aPTT/ELISA [2]: 73.5 +/− 19.7%
aPTT [2]: 55 ± 15 ng/mL

C[C@H]1CCC/C=C/[C@@H]2C[C@H](O)C[C@H]2[C@H](O)/C=C/C(=O)O1 [Brefeldin A, brefeldin A]
Intracellular FIX level (mean ± SE) [1]: 254.4% +/− 21.4
increase of intracellular FIXwt level compared with that without inhibitor ([1]; after incubation with brefeldin A, p=0.005): 370%
